Data: patent US20040102383A1, “Growth inhibition and eradication of solid tumors using neuroendocrine resetting therapy and photodynamic therapy” (priority 1996, published 2004)

Experiments:
[1] = test system: EMT-6 cells derived from a murine mammary sarcoma; experiment: EMT-6 implanted tumor mouse model: PDT with EtNBS with or without timed prolactin (Examples 1-2); format: in vivo, Balb/c mice
Procedure: Adult (6-7 wk old) male Balb/c mice were subcutaneously injected with EMT-6 cells derived from a murine mammary sarcoma (1.7×10^6 cells) on the hind quarter and were divided into four groups (n=10 per group) and treated as follows: Group 1 (D+L) received photodynamic therapy at 14 days after tumor inoculation. Photodynamic therapy consisted of subcutaneously injecting a benzophenothiazine photosensitizer (EtNBS, FIG. 7)(7.5 mg/kg of body weight) and 3 hrs later irradiating the tumor with 652 nm light at a power density of 150 mW/cm2 and a total energy of 100 J/cm^2. Group 2 (PRL) received intraperitoneal ovine prolactin (20 mcg/mouse) at 10 hours after light onset starting at 7 days after tumor inoculation and continuing for 14 days. Group 3 (D+L+PRL) received both PDT (as described above) and prolactin (as described above). Group 4 (CON) remained untreated (control). Fourteen days following PDT tumor volume was determined in all animals.
Example 1 was repeated with different PDT power density and energy characteristics (for groups 2 and 3) which better optimize the PDT effect. […] Under these conditions, tumor “cure” (tumor-free for at least 90 days) of 4-8 mm diameter tumors can be achieved in 70-100% of the cases largely dependent upon the tumor size at the time of PDT. However, if intraperitoneal prolactin administration (20 mcg/mouse/day at 10 hours after light onset) is added to PDT treatment (starting from the day of tumor cell inoculation), then the tumor cure rate is 100%.
The typical response observed using PDT alone with the PDT parameters employed are (in sequence): 1) an inflammation of the photoirradiated spot encompassing the tumor within about 30 minutes which increases to a maximum inflammation at about 3-5 hours; 2) inflammation completely subsides in 48-72 hours leaving noticeable tumor which takes 14 days to regress completely. Eschar formation occurs at 24-48 hours.
At 4-7 days the irradiated area has healed completely. This response cannot be obtained with PDT or prolactin alone.

EMT-6 cells [2] = experiment: EMT-6 implanted tumor mouse model: PDT with EtNBS with or without bromocriptine (Example 4); format: in vivo, Balb/c mice; settings: PDT alone (EtNBS 7.5 mg/kg sc, 652 nm, 50 mW/cm2, 100 J/cm^2)
Procedure: Adult (6-7 wk old) male Balb/c mice are subcutaneously injected with EMT-6 cells (1.7×10^6 cells) on the hind quarter and are divided into four groups (n=10 per group) and are treated as follows: group 1 receives photodynamic therapy (PDT) at 14 days after tumor inoculation. PDT consists of subcutaneously injecting a benzophenothiazine photosensitizer (EtNBS)(7.5 mg/kg of body weight) and 3 hrs later irradiating the tumor with 652 nm light at a power density of 50 mW/cm2 and a total energy of 100 J/cm^2. Group 2 receives intraperitoneal bromocriptine (50 mcg/mouse) at 0 hours after light onset starting at 7 days after tumor inoculation and continuing for 14 days. Group 3 receives both PDT (as described above) and intraperitoneal bromocriptine (as described above). Group 4 remains untreated (control). Fourteen days following PDT tumor volume is determined in all animals.

EMT-6 cells [3] = experiment: EMT-6 implanted tumor mouse model: PDT with EtNBS with or without melatonin (Example 5); format: in vivo, Balb/c mice
Procedure: Adult (6-7 wk old) male Balb/c mice are injected subcutaneously with EMT-6 cells (1.7×10^6 cells) on the hind quarter and are divided into four groups (n=10 per group) and are treated as follows: group 1 receives photodynamic therapy (PDT) at 14 days after tumor inoculation. PDT consists of subcutaneously injecting a benzophenothiazine photosensitizer (EtNBS)(7.5 mg/kg of body weight) and 3 hrs later irradiating the tumor with 652 nm light at a power density of 50 mW/cm^2 and a total energy of 100 J/cm^2. Group 2 receives intraperitoneal melatonin (8 mg/kg) at 10 hours after light onset starting at 7 days after tumor inoculation and continuing for 14 days. Group 3 receives both PDT (as described above) and intraperitoneal melatonin (as described above). Group 4 remains untreated (control). Fourteen days following PDT tumor volume is determined in all animals.

EMT-6 cells [4] = experiment: EMT-6 implanted tumor mouse model: PDT with EtNBS with or without bromocriptine and melatonin (Example 6); format: in vivo, Balb/c mice
Procedure: Adult (6-7 wk old) male Balb/c mice are subcutaneously injected with EMT-6 cells (1.7×10^6 cells) on the hind quarter and are divided into four groups (n=10 per group) and are treated as follows: group 1 receives photodynamic therapy (PDT) at 14 days after tumor inoculation. PDT consists of subcutaneously injecting a benzophenothiazine photosensitizer (EtNBS)(7.5 mg/kg of body weight) and 3 hrs later irradiating the tumor with 652 nm light at a power density of 50 mW/cm^2 and a total energy of 100 J/cm^2. Group 2 receives intraperitoneal melatonin (8 mg/kg) at 10 hours after light onset and intraperitoneal bromocriptine (50 mcg/mouse) at 0 hours after light onset starting at 7 days after tumor inoculation and continuing for 14 days. Group 3 receives both PDT (as described above) and intraperitoneal bromocriptine and intraperitoneal melatonin (as described above). Group 4 remains untreated (control). Fourteen days following PDT tumor volume is determined in all animals.

[5] = in vivo; cited from earlier work
[6] = test system: EMT-6 cells derived from a murine mammary sarcoma; experiment: EMT-6 implanted tumor mouse model: PDT with Dye 4-115 with or without timed prolactin (Example 3); format: in vivo, Balb/c mice
Procedure: Adult (6-7 wk old) male Balb/c mice are subcutaneously injected with EMT-6 cells derived from a murine mammary sarcoma (1.7×10^6 cells) on the hind quarter and are divided into four groups (n=10 per group) and are treated as follows: group 1 receives photodynamic therapy (PDT) at 14 days after tumor inoculation. PDT consists of intravenously injecting a benzophenothiazine photosensitizer (Dye 4-115)(2.5 mg/kg of body weight) and 1 hr later irradiating the tumor with a broad wavelength light source (600-700 nm) at a power density of 50 mW/cm^2 and a total energy of 100 J/cm^2. Group 2 receives intraperitoneal ovine prolactin (20 mcg/mouse) at 10 hours after light onset starting at 7 days after tumor inoculation and continuing for 14 days. Group 3 receives both PDT (as described above) and prolactin (as described above). Group 4 remains untreated (control). Fourteen days following PDT tumor volume is determined in all animals.

tumor burden = experiment: Timed prolactin injections in tumor bearing mice; format: in vivo; settings: circadian rhythms synchronized with a defined photoperiod; versus tumor bearing mice without timed prolactin injections
body fat stores = settings: cited from earlier work
immune responses = settings: timed daily administration within a specific window of time; no effect outside it; cited from earlier work
[7] = PDT alone (EtNBS 7.5 mg/kg sc, 652 nm, 50 mW/cm^2, 100 J/cm^2)
[8] = ip prolactin added to EtNBS PDT
[9] = ip prolactin added to Dye 4-115 PDT

CCNc1cc2sc3cc(=[N+](CC)CC)ccc-3nc2c2ccccc12.[Cl-] [EtNBS]
tumor "cure" (tumor-free for at least 90 days) ([1]; PDT alone (EtNBS 7.5 mg/kg sc, 652 nm, 50 mW/cm^2, 180 J), 4-8 mm diameter tumors): 70-100% | onset of inflammation of the photoirradiated spot ([1]; PDT alone (EtNBS)): ≤ 30 min | time for noticeable tumor to regress completely ([1]; PDT alone (EtNBS)): 14 days | time of eschar formation ([1]; PDT alone (EtNBS)): 24 to 48 h | time of maximum inflammation ([1]; PDT alone (EtNBS)): 3 to 5 h | time until inflammation completely subsides ([1]; PDT alone (EtNBS)): 48 to 72 h | tumor volume fourteen days following PDT (EMT-6 cells [2]): significantly reduced | tumor volume fourteen days following PDT (EMT-6 cells [3]; [7]): significantly reduced | tumor volume fourteen days following PDT (EMT-6 cells [4]; [7]): significantly reduced

COc1ccc2[nH]cc(CCNC(C)=O)c2c1 [melatonin]
tumor volume fourteen days following PDT (EMT-6 cells [3]; EtNBS PDT plus ip melatonin): significantly reduced or entirely eradicated | tumor volume fourteen days following PDT (EMT-6 cells [3]; ip melatonin alone, 8 mg/kg at 10 hours after light onset for 14 days): significantly reduced | effect on growth of tumors (EMT-6 cells [3]; mice, melatonin at the time when melatonin levels are peaking in healthy mice): potent inhibitory effect on growth of tumors | tumor volume fourteen days following PDT (EMT-6 cells [4]; EtNBS PDT plus ip bromocriptine and ip melatonin): significantly reduced or entirely eradicated | tumor volume fourteen days following PDT (EMT-6 cells [4]; ip melatonin 8 mg/kg at 10 hours plus ip bromocriptine 50 mcg/mouse at 0 hours after light onset, no PDT): significantly reduced

hematoporphyrin [HPD]
dermal photosensitization due to prolonged retention in the skin [5]: can persist for months

B1: prolactin: hormone; prolactin enhancer, given as intraperitoneal ovine prolactin (protein, UniProt P01240 31-229, looked up)
Prolactin: TPVCPNGPGNCQVSLRDLFDRAVMVSHYIHNLSSEMFNEFDKRYAQGKGFITMALNSCHTSSLPTPEDKEQAQQTHHEVLMSLILGLLRSWNDPLYHLVTEVRGMKGVPDAILSRAIEIEEENKRLLEGMEMIFGQVIPGAKETEPYPVWSGLPSLQTKDEDARHSAFYNLLHCLRRDSSKIDTYLKLLNCRIIYNNNC
tumor cure rate ([1]; ip prolactin 20 mcg/mouse/day at 10 hours after light onset from day of inoculation, added to EtNBS PDT (50 mW/cm^2, 180 J)): 100% | time at which the irradiated area has healed completely [1, 8]: 4 to 7 days | time to complete tumor eradication [1, 8]: ≤ 24 h | time to severe eschar formation [1, 8]: ≤ 24 h | treated animals exhibiting severe eschar formation [1, 8]: 100% | tumor cure rate ([1]; mouse models, prolactin at the appropriate time interval combined with PDT): ~100% | treated animals exhibiting severe eschar formation ([6]; ip ovine prolactin 20 mcg/mouse at 10 hours after light onset added to Dye 4-115 PDT): 100% | time at which the irradiated area will heal completely [6, 9]: 4 to 7 days | time to complete tumor eradication [6, 9]: ≤ 24 h | time to severe eschar formation [6, 9]: ≤ 24 h | tumor burden (tumor burden): decreased tumor burden | increase in body fat levels (body fat stores; prolactin injections at midday of a 16-hour daily photoperiod): 3 fold | reduction of fat stores (body fat stores; prolactin injections given early in the photoperiod): 50% | effect on immune function (immune responses): immunostimulatory effect
